Read-outs that look alike come from different tables or passages of the source.
Key:
Format in all cases: cell-based
[1] = test system: Pseudomonas aeruginosa (P. aeruginosa—ATCC #15442); experiment: Synergy test, microtiter plate high resolution MIC assay, bacterium; design: key to SI (calculated synergy index) / SI (synergy index): SI = Qa/QA + Qb/QB (mixture vs. alone end-point concentrations); settings: for MIC: Pseudomonas aeruginosa, ATCC15442; for Qb: alone or mixed with BIT; for SI (calculated synergy index) / Qb: end-point activity (MIC) of second component in the mixture (alone, QB, where Qa = 0): Table 6; for Qb: end-point activity (MIC) of second component in the mixture (alone, QB, where Qa = 0): B = Cocamidopropyl PG-dimonium chloride phosphate
Source text: (§1) One measure of synergism is the industrially accepted method described by Kull, F. C.; Eisman, P. C.; Sylwestrowicz, H. D. and Mayer, R. L., in Applied Microbiology 9:538-541 (1961), using the ratio determined by the formula: Qa/QA+Qb/QB=Synergy Index (“SI”) wherein: • QA=concentration of compound A (first component) in ppm, acting alone, which produced an end point (MIC of Compound A). • Qa=concentration of compound A in ppm, in the mixture, which produced an end point. • QB=concentration of compound B (second component) in ppm, acting alone, which produced an end point (MIC of Compound B). • Qb=concentration of compound B in ppm, in the mixture, which produced an end point.
(§2) When the sum of Qa/QA and Qb/QB is greater than one, antagonism is indicated. […] The lower the SI, the greater the synergy shown by that particular mixture. The minimum inhibitory concentration (MIC) of a microbicide is the lowest concentration tested under a specific set of conditions that prevents the growth of added microorganisms.
(§3) Synergy tests were conducted using standard microtiter plate assays with media designed for optimal growth of the test microorganism. Soybean Casein Digest Broth (Tryptic Soy Broth, TSB medium) or minimal salt medium supplemented with 0.2% glucose and 0.1% yeast extract (M9GY medium) was used for testing bacteria; Potato Dextrose Broth (PDB medium) was used for testing yeast and mold. In this method, a wide range of combinations of microbicides was tested by conducting high resolution MIC assays in the presence of various concentrations of MI. High resolution MICs were determined by adding varying amounts of microbicide to one column of a microtitre plate and doing subsequent ten-fold dilutions using an automated liquid handling system to obtain a series of endpoints ranging from 2 ppm to 10,000 ppm active ingredient.
(§4) For MI combinations, the synergy of the combinations of the present invention was determined against two bacteria, Escherichia coli (E. coli—ATCC #8739) or Pseudomonas aeruginosa (P. aeruginosa—ATCC #15442), a yeast, Candida albicans (C. albicans—ATCC 10231), and a mold, Aspergillus niger (A. niger—ATCC 16404). The bacteria were used at a concentration of about 5×10^6 bacteria per mL and the yeast and mold at 5×10^5 fungi per mL. These microorganisms are representative of natural contaminants in many consumer and industrial applications. […] (bacteria).
(§5) For BIT combinations, the synergy of the combinations of the present invention was determined against a bacterium, Pseudomonas aeruginosa (P. aeruginosa—ATCC #15442), a yeast, Candida albicans (C. albicans—ATCC 10231), and a mold, Aspergillus niger (A. niger—ATCC 16404). The bacteria were used at a concentration of about 5×10^6 bacteria per mL and the yeast and mold at 5×10^5 fungi per mL. These microorganisms are representative of natural contaminants in many consumer and industrial applications. […] (yeast and mold) or 30° C. (bacteria).

S. aureus 6538 = experiment: as above; settings: S. aureus 6538, TSB
Source text: as §1, §2, §3

[2] = test system: Candida albicans (C. albicans—ATCC 10231); experiment: Synergy test, microtiter plate high resolution MIC assay, yeast; settings: C. albicans 10231, PDB; for MIC: Candida albicans, ATCC10231; for Qb: alone or mixed with BIT
Source text: as §1, §2, §3, §4, §5

[3] = test system: Escherichia coli (E. coli—ATCC #8739); experiment: Synergy test, microtiter plate high resolution MIC assay, bacterium; settings: E. coli 8739, M9GY; for Qb: alone or mixed with BIT
Source text: as §1, §2
as §3, with “In this method, a wide range of combinations of microbicides was tested by conducting high resolution MIC assays in the presence of various concentrations of MI.” left out
as §4

[4] = test system: Aspergillus niger (A. niger—ATCC 16404); experiment: Synergy test, microtiter plate high resolution MIC assay, mold; design: key to SI (calculated synergy index) / SI (synergy index): SI = Qa/QA + Qb/QB (mixture vs. alone end-point concentrations); settings: A. niger 16404, PDB; for MIC: Aspergillus niger, ATCC16404, 72 h
Source text: as §1, §2, §3, §4, §5

[5] = glutaraldehyde concentration giving end point (MIC), 24 hours
[6] = synergy index BIT + glutaraldehyde, 24 hours
[7] = P. aeruginosa 15442, M9GY, 72 hours
[8] = P. aeruginosa 15442, TSB, 48 hours
[9] = Table 6, 24 hours, B = Cocamidopropyl PG-dimonium chloride phosphate

N=C(N)c1ccc(OCCCCCCOc2ccc(C(=N)N)cc2)cc1.O=S(=O)(O)CCO.O=S(=O)(O)CCO [Hexamidine diisethionate]
MIC of component acting alone (QA / QB) ([1]; P. aeruginosa 15442, TSB, 72 hours): 2000 ppm | MIC of component acting alone (QA / QB) (S. aureus 6538; 72 hours): 4000 ppm | MIC of component acting alone (QA / QB) ([2]; 48 hours): 2000 ppm

CCCCC(CC)CN1CN(CC(CC)CCCC)CC(C)(N)C1 (stereo not shown) [Hexetidine]
MIC ([1]; P. aeruginosa 15442, TSB, 24 hours, read-out: MIC of component acting alone (QA / QB)): 10000 µg/mL | MIC (S. aureus 6538; Staphylococcus aureus, 48 hours, read-out: MIC of component acting alone (QA / QB)): 4 µg/mL | MIC ([2]; 72 hours, read-out: MIC of component acting alone (QA / QB)): 2000 µg/mL

Cl/C=C\C[N+]12CN3CN(CN(C3)C1)C2.[Cl-] [cis-1-(3-chloroallyl)-3,5,7-triaza-1-azoniaadamantane chloride]
MIC ([1]; Table 24, Cis-1-(3-chloroallyl)-3,5,7-triaza-1-azoniaadamantane chloride with BIT, P. aeruginosa 15442, M9GY, 24 hours, alone where Qa = 0, read-out: Qb (second component at end point, MIC)): 400 µg/mL | SI (synergy index) ([1]; Table 24, P. aeruginosa 15442, M9GY, 24 hours): 1.00 | MIC ([2]; Table 24, Cis-1-(3-chloroallyl)-3,5,7-triaza-1-azoniaadamantane chloride with BIT, 24 hours, alone where Qa = 0, read-out: Qb (second component at end point, MIC)): 800 µg/mL | SI (synergy index) ([2]; Table 24, 24 hours): 1.00 | MIC ([3]; Escherichia coli, ATCC8739, Table 24, Cis-1-(3-chloroallyl)-3,5,7-triaza-1-azoniaadamantane chloride with BIT, 48 hours, alone where Qa = 0, read-out: Qb (second component at end point, MIC)): 400 µg/mL | SI (synergy index) ([3]; Table 24, 48 hours): 1.00 | MIC ([4]; Table 24, Cis-1-(3-chloroallyl)-3,5,7-triaza-1-azoniaadamantane chloride with BIT, 3 days, alone where Qa = 0, read-out: Qb (second component at end point, MIC)): 800 µg/mL | SI (synergy index) ([4]; Table 24, 3 days): 1.00

O=CCCCC=O [glutaraldehyde]
Qb ([1]; glutaraldehyde concentration giving end point (MIC), P. aeruginosa 15442, M9GY, 48 hours): 60 ppm | SI ([1]; synergy index BIT + glutaraldehyde, P. aeruginosa 15442, M9GY, 48 hours): 1.00 | Qb [2, 5]: 30 ppm | SI [2, 6]: 1.00 | Qb [3, 5]: 50 ppm | SI [3, 6]: 1.00 | MIC ([4]; glutaraldehyde concentration giving end point (MIC), alone or mixed with BIT, 3 days, read-out: Qb): 400 µg/mL | SI ([4]; synergy index BIT + glutaraldehyde, 3 days): 1.00

O=C([O-])c1ccccc1.[Na+] [sodium benzoate]
SI (synergy index) ([1]; Table 26, P. aeruginosa 15442, M9GY, 24 hours): 1.00 | Qb (second component at end point, MIC) ([1]; Table 26, sodium benzoate with BIT, P. aeruginosa 15442, M9GY, 24 hours, alone where Qa = 0): 10000 ppm | SI (synergy index) ([2]; Table 26, 48 hours): 1.00 | Qb (second component at end point, MIC) ([2]; Table 26, sodium benzoate with BIT, 48 hours, alone where Qa = 0): 2000 ppm | SI (synergy index) ([3]; Table 26, 24 hours): 1.00 | Qb (second component at end point, MIC) ([3]; Table 26, sodium benzoate with BIT, 24 hours, alone where Qa = 0): 10000 ppm | SI (synergy index) ([4]; Table 26, 1 week): 1.00 | Qb (second component at end point, MIC) ([4]; Table 26, sodium benzoate with BIT, 1 week, alone where Qa = 0): 6000 ppm

Cocamidopropyl PG-dimonium chloride phosphate
SI (calculated synergy index) [1, 7]: 1.00 | Qb: end-point activity (MIC) of second component in the mixture (alone, QB, where Qa = 0) [1, 7]: 30 ppm | SI (calculated synergy index) [1, 8]: 1.00 | Qb: end-point activity (MIC) of second component in the mixture (alone, QB, where Qa = 0) [1, 8]: 1000 ppm | Qb (second component at end point, MIC) ([1]; Table 22, Cocamidopropyl PG-dimonium chloride phosphate with BIT, P. aeruginosa 15442, M9GY, 72 hours, alone where Qa = 0): 40 ppm | SI (synergy index) ([1]; Table 22, P. aeruginosa 15442, M9GY, 72 hours): 1.00 | SI (calculated synergy index) (S. aureus 6538; Table 6, 24 hours): 1.00 | Qb: end-point activity (MIC) of second component in the mixture (alone, QB, where Qa = 0) (S. aureus 6538; [9]): 30 ppm | SI (calculated synergy index) ([2]; Table 6, 24 hours): 1.00 | Qb: end-point activity (MIC) of second component in the mixture (alone, QB, where Qa = 0) [2, 9]: 100 ppm | SI (calculated synergy index) ([4]; Table 6, 4 days): 1.00 | Qb: end-point activity (MIC) of second component in the mixture (alone, QB, where Qa = 0) ([4]; Table 6, 4 days, B = Cocamidopropyl PG-dimonium chloride phosphate): 1000 ppm | SI (synergy index) ([4]; Table 22, 1 week): 1.00 | Qb (second component at end point, MIC) ([4]; Table 22, Cocamidopropyl PG-dimonium chloride phosphate with BIT, 1 week, alone where Qa = 0): 3000 ppm

imidazolidinyl urea [Imidalozidinyl urea]
Qb ([1]; Imidalozidinyl urea concentration giving end point (MIC), P. aeruginosa 15442, M9GY, 48 hours): 400 ppm | SI ([1]; synergy index BIT + Imidalozidinyl urea, P. aeruginosa 15442, M9GY, 48 hours): 1.00 | Qb ([2]; Imidalozidinyl urea concentration giving end point (MIC), 24 hours): 10000 ppm | SI ([2]; synergy index BIT + Imidalozidinyl urea, 24 hours): 1.00 | Qb ([3]; Imidalozidinyl urea concentration giving end point (MIC), 48 hours): 400 ppm | SI ([3]; synergy index BIT + Imidalozidinyl urea, 48 hours): 1.00 | Qb ([4]; Imidalozidinyl urea concentration giving end point (MIC), alone or mixed with BIT, 3 days): 8000 ppm | SI ([4]; synergy index BIT + Imidalozidinyl urea, 3 days): 1.00
